Results on two compounds are retold here after patent US20250339409A1, “USES OF PAN BET INHIBITORS” (VYNE THERAPEUTICS INC., priority 2021, published 2025).

Read-outs that look alike come from different tables or passages of the source.

In assay [1] the test system is IL4, IL13, IL31, CCL17, CCL26, CCL2 gene expression in Th2 stimulated human skin. Description: Th2 stimulated human skin explants, RT-qPCR of biomarkers. The format is cell-based. The settings on record: for inhibition at 0.01 µM / inhibition at 0.04 µM / inhibition at 0.16 µM / inhibition at 0.63 µM / inhibition at 2.5 µM / inhibition at 10 µM: Homo sapiens; for inhibition at 2.5 µM: 2.50 μM. The text has this:
(§1) Human skin biopsy tissue was stimulated to induce a Th17 immuno-phenotype using a method derived from Feghali-Bostwick et al. Induction of a Th17 phenotype in human skin—a mimic of dermal inflammatory diseases, Methods and Protocols, 2, 45 (2019). The pharmacodynamic assay described therein involves a similar paradigm to elicit a Th2 response and is used to evaluate the therapeutic potential of the active compounds (e.g., BETi1; and
(§2) Freshly excised healthy human skin tissue from abdominoplasties is defatted, cleaned and sectioned into 7 mm biopsies. The biopsies are placed in Transwell® inserts with the epidermis apical and exposed to air and the dermis submerged in media in the basal chamber. The biopsies are pre-treated overnight at 37° C., 5% CO2 with different compounds and controls added to the media in the basal chamber.
(§3) The next day, contents of the basal chamber is replaced with fresh media containing the test compound (listed below) and a stimulation cocktail for either Th2 inflammation (proprietary of service provider cocktail) or Th17 inflammation (mix of antibodies against CD3, CD28, IL-4, IFNγ and recombinant IL-1β, IL-6, IL-21, TGF-β). The biopsies are incubated at 37° C., 5% CO2 for a further 24 hrs.
(§4) A list of all the treatments is provided below: • 1. Untreated control (for both stimulations) • 2. Th2 stimulated control • 3. Th17 stimulated control • 4. Th2+BETia at 0.01, 0.04, 0.16, 0.63, 2.50, and 10 μM • 5. Th2+BETi1 at 0.01, 0.04, 0.16, 0.63, 2.50, and 10 μM • 6. Th2+Ruxolitinib at 0.01, 0.04, 0.16, 0.63, 2.50, and 10 μM • 7. Th2+betamethasone valerate 210 μM (equivalent to 0.01%) • 8. Th17+BETia at 10 μM • 9. Th17+BETi1 at 10 μM • 10. Th17+Ruxolitinib at 10 μM • 11. Th17+betamethasone valerate 210 μM (equivalent to 0.01%)
(§5) After harvesting, the biopsies are cut in half, and one half is homogenized and used for RNA extraction by standard methods and inflammatory pathways is assessed by RT-qPCR. The ability of BETi1 or BETia to inhibit the activity of up to six biomarkers per stimulation is reported as percent activity calculated to stimulated control and fold change in gene expression calculated to untreated control with respect to Th2 (IL4, IL13, IL31, CCL17, CCL26, CCL2) and Th17 (CXCL10, IL17α, IL22, IL36γ, CCL20, SerpinB4). Statistical analysis is performed on data sets from all 3 donors combined and compares the percent inhibition of each biomarker by each treatment calculated to its respective vehicle.
(§6) qPCR values were calculated using the relative quantification approach outlined by Livak, et al (2001) (Section 9, Reference 2). The Ct values (threshold cycle) defined as the fractional cycle number at which the amount of amplified target reaches a fixed threshold, were normalised to the Ct value of an internal biomarker or ‘housekeeping gene’ (GAPDH). The higher limit of detection was set at a Ct value of 40, and any target having not reached Ct by 40 cycles was set to this value. The delta Ct values (dt(Ct)) refers to the Ct of the gene of interest minus the Ct of the internal biomarker. The ddt(Ct) is the dt(Ct) value of the gene minus the average dt(Ct) value of the untreated samples. The ddt(Ct) is converted to power by the equation; =power(2,dt(Ct)). Fold change was calculated as ratio of the power of the gene of interest divided by the average power of the untreated samples. This normalizes the untreated samplers to a value of 1. For the comparison of multiple skin donors, the stimulated samples were normalized to 100% maximum activity (such to normalize variability between different skin donors). Percent activity was calculated as the percent increase or decrease in stimulation compared to the stimulated samples set at 100% maximum activity. Percent change was calculated as: Inhibition=(100−(avg % activity/stimulated)*100). Statistical analysis was performed using One-way ANOVA with Dunnett's Multiple Comparisons (non parametric). […]
For orientation: In qPCR the cycle at which signal appears reflects the starting amount.

The subject of assay [2] is CXCL10, IL17α, IL22, IL36γ, CCL20, SerpinB4 gene expression in Th17 stimulated human skin. The experiment in a line: Th17 stimulated human skin explants, RT-qPCR of biomarkers. Type of assay: cell-based. As to conditions: calculated to Th17 stimulated control, three skin donors; for inhibition at 10 µM: Homo sapiens.
Source text: as §1, §2, §3, §4, §5, §6

Setting [3] is: 210 μM, calculated to Th2 stimulated control.
[4] abbreviates: calculated to Th2 stimulated control, read-out: % Inhibition CCL17.
The mark [5] stands for this setting: calculated to Th2 stimulated control, read-out: % Inhibition CCL26.
Setting [6] is: calculated to Th2 stimulated control, read-out: % Inhibition IL31.
[7] abbreviates: calculated to Th2 stimulated control, read-out: % inhibition CCL2.
The mark [8] stands for this setting: calculated to Th2 stimulated control, read-out: % inhibition IL4.
The mark [9] stands for this setting: calculated to Th2 stimulated control, read-out: % inhibition IL13.

As to `CCCCC(=O)O[C@]1(C(=O)CO)[C@@H](C)C[C@H]2[C@@H]3CCC4=CC(=O)C=C[C@]4(C)[C@@]3(F)[C@@H](O)C[C@@]21C` [Betamethasone, betamethasone valerate, reference compound], the “% Inhibition IL31” value in assay [1] (10 μM, calculated to Th2 stimulated control) is 87.4%. In assay [1] (setting [3]), the “% Inhibition CCL26” value is given as 64.4% and the “% inhibition IL13” value is given as 97.8%. Moreover, the “% inhibition CCL20” value in assay [2] (10 μM) was “N/I (N/I indicates no inhibition.)”. Also, in assay [2] (210 μM), the “% inhibition IL17α” value is listed as 73.1% and the “% inhibition IL36γ” value was 77.7%.

For orientation: inhibition means the drop in the measured response relative to a control, in per cent. With `N#CC[C@H](C1CCCC1)n1cc(-c2ncnc3[nH]ccc23)cn1` [Ruxolitinib, reference compound], the inhibition at 0.01 µM in assay [1] (setting [4]) is 23.2%; in assay [1] (setting [5]), 14%; in assay [1] (setting [6]) it was under 0%; in assay [1] (setting [7]) it was under 0%; in assay [1] (setting [8]), under 0%; in assay [1] (setting [9]), 2.3%. The inhibition at 0.04 µM was 47.7% in assay [1] (setting [4]), 35.3% in assay [1] (setting [5]), under 0% in assay [1] (setting [7]) and 41.9% in assay [1] (setting [8]). Further, the inhibition at 0.16 µM in assay [1] (setting [6]) is 57.9%; in assay [1] (setting [7]), under 0%; in assay [1] (setting [9]) it was 66.3%. In addition, the inhibition at 0.63 µM in assay [1] (setting [4]) is 34%; in assay [1] (setting [5]), 88.3%; in assay [1] (setting [6]), 55.9%; in assay [1] (setting [7]), under 0%; in assay [1] (setting [8]), 53.8%; in assay [1] (setting [9]), 48.8%. The inhibition at 2.5 µM was under 0% in assay [1] (setting [6]), 33% in assay [1] (setting [7]), 20.5% in assay [1] (setting [8]) and 18.5% in assay [1] (setting [9]). Also, the inhibition at 10 µM in assay [1] (10 μM, calculated to Th2 stimulated control, read-out: % Inhibition CCL17) is 89.9%; in assay [1] (10 μM, calculated to Th2 stimulated control, read-out: % Inhibition CCL26), 98.5%; in assay [1] (10 μM, calculated to Th2 stimulated control, read-out: % Inhibition IL31), 29.9%; in assay [1] (10 μM, calculated to Th2 stimulated control, read-out: % inhibition CCL2), about 57%; in assay [1] (10 μM, calculated to Th2 stimulated control, read-out: % inhibition IL4) it was 48.5%; in assay [1] (10 μM, calculated to Th2 stimulated control, read-out: % inhibition IL13), about 54%. Besides, the inhibition at 10 µM in assay [2] (10 μM, read-out: % inhibition CCL20) was under 0%; in assay [2] (10 μM, read-out: % inhibition CXCL10), about 99%; in assay [2] (10 μM, read-out: % inhibition IL17α), 2.8%; in assay [2] (10 μM, read-out: % inhibition IL22), about 99%; in assay [2] (10 μM, read-out: % inhibition Serpinβ4), 92%. Also, the “highest percent inhibition of CCL17 gene expression” value in assay [1] (Th2-mediated stimulation, 10 μM) is “ca. 90%”.
